Data taken from ChEMBL document CHEMBL3399942, “Identification and optimization of pyridazinones as potent and selective c-Met kinase inhibitors” (Bioorg Med Chem Lett, 2015).
One block for each molecule: values may come before it. Calls of active or inactive are those of the source. The rule behind the calls is not given here.

How the values were obtained:
[1] = Lipophilicity, log D of the compound; type: physicochemical; conditions: octanol/water
[2] = target: T1, Hepatocyte growth factor receptor (Homo sapiens, UniProt P08581); assay: Inhibition of c-Met kinase in human A549 cells assessed as inhibition of phosphorylation after 45 mins by electrochemiluminescence assay
T1 sequence (P08581 whole entry, the tested form may be a part): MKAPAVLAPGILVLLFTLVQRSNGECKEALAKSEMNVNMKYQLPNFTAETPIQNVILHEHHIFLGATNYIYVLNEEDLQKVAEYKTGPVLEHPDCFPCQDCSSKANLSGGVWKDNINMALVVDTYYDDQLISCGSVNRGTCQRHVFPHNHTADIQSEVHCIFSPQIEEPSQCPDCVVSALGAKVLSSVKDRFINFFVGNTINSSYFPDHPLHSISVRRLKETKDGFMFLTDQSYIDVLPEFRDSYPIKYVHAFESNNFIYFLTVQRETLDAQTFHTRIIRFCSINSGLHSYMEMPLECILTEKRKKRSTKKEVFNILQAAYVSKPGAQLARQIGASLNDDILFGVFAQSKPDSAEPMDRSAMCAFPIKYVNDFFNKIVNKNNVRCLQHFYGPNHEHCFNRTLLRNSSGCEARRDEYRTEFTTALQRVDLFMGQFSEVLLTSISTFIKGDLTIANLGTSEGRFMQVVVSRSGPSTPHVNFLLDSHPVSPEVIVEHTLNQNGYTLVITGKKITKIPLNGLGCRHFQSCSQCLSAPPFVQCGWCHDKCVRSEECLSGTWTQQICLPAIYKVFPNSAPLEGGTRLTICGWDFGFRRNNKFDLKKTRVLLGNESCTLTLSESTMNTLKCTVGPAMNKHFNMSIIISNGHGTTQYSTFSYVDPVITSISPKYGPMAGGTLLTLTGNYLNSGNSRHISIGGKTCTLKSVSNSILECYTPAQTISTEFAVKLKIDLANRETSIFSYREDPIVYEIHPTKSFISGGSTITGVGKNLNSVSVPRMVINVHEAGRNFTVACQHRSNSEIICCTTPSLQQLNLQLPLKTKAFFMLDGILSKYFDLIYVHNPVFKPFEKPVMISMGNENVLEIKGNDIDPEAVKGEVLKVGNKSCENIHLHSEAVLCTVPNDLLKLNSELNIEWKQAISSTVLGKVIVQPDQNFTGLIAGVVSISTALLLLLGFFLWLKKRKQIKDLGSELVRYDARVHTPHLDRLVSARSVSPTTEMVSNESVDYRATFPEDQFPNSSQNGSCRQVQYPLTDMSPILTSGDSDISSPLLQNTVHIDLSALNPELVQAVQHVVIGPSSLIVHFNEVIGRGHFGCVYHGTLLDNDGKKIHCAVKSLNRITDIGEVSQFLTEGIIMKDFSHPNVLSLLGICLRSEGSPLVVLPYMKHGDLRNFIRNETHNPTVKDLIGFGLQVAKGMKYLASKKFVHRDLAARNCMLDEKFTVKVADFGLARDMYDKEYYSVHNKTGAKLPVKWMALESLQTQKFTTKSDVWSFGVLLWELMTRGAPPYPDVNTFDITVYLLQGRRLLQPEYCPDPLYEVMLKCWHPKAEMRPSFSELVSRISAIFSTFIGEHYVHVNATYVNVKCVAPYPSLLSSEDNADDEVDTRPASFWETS

[3] = target: T1, Hepatocyte growth factor receptor; assay: Inhibition of GST-His6-tagged recombinant human c-Met kinase domain (956 to 1390) after 60 mins by anoff-chip mobility shift assay
[4] = Clearance in NMRI mouse at 0.2 mg/kg, iv and 0.5 mg/kg, po by LC/MS/MS analysis; type: ADME, organism-based; conditions: in vivo
[5] = Oral bioavailability in NMRI mouse at 0.5 mg/kg by LC/MS/MS analysis; type: ADME, organism-based; conditions: in vivo
[6] = Half life in cynomolgus monkey at 2 mg/kg, iv after 72 hrs by LC/MS/MS analysis; type: ADME, organism-based, Macaca fascicularis; set-up: dose 2 mg/kg, route intravenous; conditions: in vivo
[7] = Fraction unbound in NMRI mouse plasma; type: ADME, cell-free
[8] = Oral bioavailability in Wistar rat at 6 mg/kg after 24 hrs by LC/MS/MS analysis; type: ADME, organism-based; conditions: in vivo
[9] = Half life in NMRI mouse at 2 mg/kg, iv after 24 hrs by LC/MS/MS analysis; type: ADME, organism-based; set-up: dose 2 mg/kg, route intravenous; conditions: in vivo
[10] = Clearance in Wistar rat at 3 mg/kg, iv after 24 hrs by LC/MS/MS analysis; type: ADME, organism-based; set-up: dose 3 mg/kg, route intravenous; conditions: in vivo
[11] = Half life in Wistar rat at 3 mg/kg, iv after 24 hrs by LC/MS/MS analysis; type: ADME, organism-based; set-up: dose 3 mg/kg, route intravenous; conditions: in vivo
[12] = Toxicity in po dosed CD-1 nude mouse xenografted with human EBC1 cells administered qd for 5 days on and 2 days off up to 32 days; type: organism-based; conditions: in vivo
[13] = Fraction unbound in Wistar rat plasma; type: ADME, cell-free
EBC-1 = assay: Antitumor activity against human EBC1 cells xenografted in CD-1 nude mouse assessed as tumor regression at 15 mg/kg, po qd administered for 5 days on and 2 days off up to 32 days; type: functional, organism-based; set-up: dose 15 mg/kg
[14] = Fraction unbound in beagle dog plasma; type: ADME, cell-free, Canis lupus familiaris
[15] = Volume of distribution at steady state in cynomolgus monkey at 2 mg/kg, iv after 72 hrs by LC/MS/MS analysis; type: ADME, organism-based, Macaca fascicularis; set-up: dose 2 mg/kg, route intravenous; conditions: in vivo, read-out: Vdss
[16] = Volume of distribution at steady state in beagle dog at 2 mg/kg, iv after 48 hrs by LC/MS/MS analysis; type: ADME, organism-based, Canis lupus familiaris; set-up: dose 2 mg/kg, route intravenous; conditions: in vivo, read-out: Vdss
[17] = Volume of distribution at steady state in Wistar rat at 3 mg/kg, iv after 24 hrs by LC/MS/MS analysis; type: ADME, organism-based; set-up: dose 3 mg/kg, route intravenous; conditions: in vivo, read-out: Vdss
[18] = Fraction unbound in cynomolgus monkey plasma; type: ADME, cell-free, Macaca fascicularis
[19] = Clearance in beagle dog at 2 mg/kg, iv after 48 hrs by LC/MS/MS analysis; type: ADME, organism-based, Canis lupus familiaris; set-up: dose 2 mg/kg, route intravenous; conditions: in vivo
[20] = Plasma protein binding in human at 0.3 uM; type: ADME, cell-free; conditions: read-out: PPB (converted)
Mus musculus = assay: Toxicity in CD-1 nude mouse xenografted with human EBC1 cells assessed as body weight loss at 15 mg/kg, po qd administered for 5 days on and 2 days off up to 32 days; type: organism-based; set-up: dose 15 mg/kg, route oral; conditions: in vivo
[21] = Cmax in NMRI mouse at 5 mg/kg, po after 24 hrs by LC/MS/MS analysis; type: ADME, organism-based; set-up: dose 5 mg/kg, route oral; conditions: in vivo
[22] = Oral bioavailability in cynomolgus monkey at 5 mg/kg after 72 hrs by LC/MS/MS analysis; type: ADME, organism-based, Macaca fascicularis; conditions: in vivo
[23] = Clearance in cynomolgus monkey at 2 mg/kg, iv after 72 hrs by LC/MS/MS analysis; type: ADME, organism-based, Macaca fascicularis; set-up: dose 2 mg/kg, route intravenous; conditions: in vivo
[24] = Half life in beagle dog at 2 mg/kg, iv after 48 hrs by LC/MS/MS analysis; type: ADME, organism-based, Canis lupus familiaris; set-up: dose 2 mg/kg, route intravenous; conditions: in vivo
[25] = Oral bioavailability in beagle dog at 5 mg/kg after 48 hrs by LC/MS/MS analysis; type: ADME, organism-based, Canis lupus familiaris; conditions: in vivo
[26] = Oral bioavailability in NMRI mouse at 5 mg/kg after 24 hrs by LC/MS/MS analysis; type: ADME, organism-based; conditions: in vivo
[27] = Cmax in beagle dog at 5 mg/kg, po after 48 hrs by LC/MS/MS analysis; type: ADME, organism-based, Canis lupus familiaris; set-up: dose 5 mg/kg, route oral; conditions: in vivo
[28] = Clearance in NMRI mouse at 2 mg/kg, iv after 24 hrs by LC/MS/MS analysis; type: ADME, organism-based; set-up: dose 2 mg/kg, route intravenous; conditions: in vivo
[29] = Volume of distribution at steady state in NMRI mouse at 2 mg/kg, iv after 24 hrs by LC/MS/MS analysis; type: ADME, organism-based; set-up: dose 2 mg/kg, route intravenous; conditions: in vivo, read-out: Vdss
[30] = Fraction unbound in human plasma; type: ADME, cell-free
[31] = Plasma protein binding in human at 10 uM; type: ADME, cell-free; conditions: read-out: PPB (converted)
[32] = Cmax in Wistar rat at 6 mg/kg, po after 24 hrs by LC/MS/MS analysis; type: ADME, organism-based; set-up: dose 6 mg/kg, route oral; conditions: in vivo
[33] = Cmax in cynomolgus monkey at 5 mg/kg, po after 72 hrs by LC/MS/MS analysis; type: ADME, organism-based, Macaca fascicularis; set-up: dose 5 mg/kg, route oral; conditions: in vivo
Phosphodiesterase 4 [34] = target: T2, Phosphodiesterase 4 (Homo sapiens, UniProt P27815+Q08499+Q07343+Q08493); assay: Inhibition of PDE4 (unknown origin) at 10 uM; type: protein assay
Phosphodiesterase 3 [35] = target: T3, Phosphodiesterase 3 (Homo sapiens, UniProt Q14432+Q13370); assay: Inhibition of PDE3 (unknown origin) at 10 uM; type: protein assay
[36] = Aqueous solubility of the compound in phosphate buffer at pH 7.4; type: physicochemical
Phosphodiesterase 4 [37] = target: T2, Phosphodiesterase 4; assay: Inhibition of PDE4 (unknown origin); type: protein assay
Phosphodiesterase 3 [38] = target: T3, Phosphodiesterase 3; assay: Inhibition of PDE3 (unknown origin); type: protein assay

logD [1]: 3
Compound: CN(C)CCCOc1cnc(-c2cccc(Cn3nc(-c4cc(F)cc(F)c4)ccc3=O)c2)nc1

IC50 [2]: 34 nM
IC50 [3]: 1 nM
clearance [4]: 35 mL/min/kg
bioavailability [5]: 35%
Compound: N#Cc1cccc(-c2ccc(=O)n(Cc3cccc(-c4ncc(OCCN5CCOCC5)cn4)c3)n2)c1

logD [1]: 1.4
Compound: CN(C)CCCOc1cnc(-c2cccc(Cn3nc(-c4cccnc4)ccc3=O)c2)nc1

logD [1]: 2.4
clearance [4]: 102 mL/min/kg
bioavailability [5]: 32%
Compound: CN(C)CCCOc1cnc(-c2cccc(Cn3nc(-c4cccc(C#N)c4)ccc3=O)c2)nc1

Compound: CN1CCC(COc2cnc(-c3cccc(Cn4nc(-c5cccc(C#N)c5)ccc4=O)c3)nc2)CC1 [TEPOTINIB]
half-life [6]: 10 h
fraction unbound [7]: 0.028
bioavailability [8]: 55%
half-life [9]: 2.1 h
clearance [10]: 78.3 mL/min/kg
half-life [11]: 3.2 h
MTD [12]: 15 mg/kg
fraction unbound [13]: 0.041
Activity (EBC-1): Active
fraction unbound [14]: 0.064
Vd [15]: 9.6 L/kg
Vd [16]: 26 L/kg
Vd [17]: 20 L/kg
fraction unbound [18]: 0.052
clearance [19]: 55 mL/min/kg
fraction unbound at 0.3 µM [20]: 0.016
Activity (Mus musculus): Non-toxic
Cmax [21]: 62.2 ng/mL
bioavailability [22]: 25%
clearance [23]: 12.2 mL/min/kg
half-life [24]: 7.6 h
bioavailability [25]: 22%
bioavailability [26]: 41%
Cmax [27]: 22.4 ng/mL
clearance [28]: 66.7 mL/min/kg
Vd [29]: 8.2 L/kg
clearance [4]: 60 mL/min/kg
fraction unbound [30]: 0.023
bioavailability [5]: 34%
fraction unbound at 10 µM [31]: 0.034
Cmax [32]: 66 ng/mL
Cmax [33]: 55.5 ng/mL

inhibition (Phosphodiesterase 4 [34]): 49%
IC50 [3]: 90 nM
inhibition (Phosphodiesterase 3 [35]): 1%
Compound: CCN(CC)CCCOC(=O)Nc1cccc(CN2N=C(c3ccc(Cl)cc3)CSC2=O)c1

logD [1]: 2.6
Compound: COc1cccc(-c2ccc(=O)n(Cc3cccc(-c4ncc(OCCCN(C)C)cn4)c3)n2)c1

IC50 [2]: 140 nM
logD [1]: 2.6
IC50 [3]: 6.5 nM
Compound: CN(C)CCCOc1cnc(-c2cccc(Cn3nc(-c4cccc(F)c4)ccc3=O)c2)nc1

clearance [4]: 51.7 mL/min/kg
bioavailability [5]: 30%
Compound: CN(C)CCCOC(=O)Nc1cccc(Cn2nc(-c3cc(F)cc(F)c3)ccc2=O)c1

IC50 [3]: 5300 nM
Compound: Cc1cnc(-c2cccc(Cn3nc(-c4cc(F)cc(F)c4)ccc3=O)c2)[nH]1

solubility [36]: < 1 µg/mL
Compound: Cc1cnc(-c2cccc(Cn3nc(-c4cc(F)cc(F)c4)ccc3=O)c2)nc1

inhibition (Phosphodiesterase 4 [34]): 19%
inhibition (Phosphodiesterase 3 [35]): 8%
Compound: O=C(Nc1cccc(Cn2nc(-c3cc(F)cc(F)c3)ccc2=O)c1)OCCCN1CCOCC1

inhibition (Phosphodiesterase 4 [34]): 8%
inhibition (Phosphodiesterase 3 [35]): 28%
Compound: CN(C)CCCOC(=O)Nc1cccc(Cn2nc(-c3ccc(F)cc3)ccc2=O)c1

IC50 [2]: 78 nM
IC50 [3]: 23 nM
clearance [4]: 56.7 mL/min/kg
bioavailability [5]: 25%
Compound: CN(C)CCCOC(=O)Nc1cccc(CN2N=C(c3cc(F)cc(F)c3)CSC2=O)c1

IC50 [2]: 1100 nM
IC50 (Phosphodiesterase 4 [37]): 63 nM
IC50 (Phosphodiesterase 3 [38]): 1500 nM
IC50 [3]: 400 nM
clearance [4]: 100 mL/min/kg
bioavailability [5]: < 5%
Compound: CCN(CC)CCCOC(=O)Nc1cccc(CN2N=C(c3ccc(OC)c(OC)c3)CSC2=O)c1

IC50 [3]: 800 nM
Compound: Cc1nc(-c2cccc(Cn3nc(-c4cc(F)cc(F)c4)ccc3=O)c2)no1
